The numbers were not newly measured in EP2231118B2, “SUSPENSION COMPRISING NON-MICRONIZED EZETIMIBE MICRO-PARTICLES” (KRKA, tovarna zdravil, d.d., Novo mesto, priority 2007, dated 2009), which cites them from elsewhere.

On to `O=C1[C@H](CC[C@H](O)c2ccc(F)cc2)[C@@H](c2ccc(O)cc2)N1c1ccc(F)cc1` [Ezetimibe, 1-(4-fluorophenyl)-3(R)-[3-(4-fluorophenyl)-3(S)-hydroxypropyl]-4(S)-(4-hydroxyphenyl)-2-azetidinone], for which the solubility in water entry was “practically insoluble”.
